Experimental data reported in publication PMC7725003, “Systematically Studying the Optimal Amino Acid Distribution Patterns of the Amphiphilic Structure by Using the Ultrashort Amphiphiles” (Frontiers in Microbiology, 2020).
Where no end group is shown, it is not given here.

How the values were obtained:
[1] = system: P. aeruginosa 27853; assay type: cell-based, Pseudomonas aeruginosa; conditions: 27853, 24 h
Description: (§1) The antimicrobial activities of the peptides were measured using a method adapted from the National Committee for Clinical Laboratory Standards (NCCLS) with some modifications ([Chou et al., 2016]). The specific procedure for these assays has been previously described. In brief, the bacterial cells were grown to a mid-logarithmic phase and diluted in MHB to an ultimate concentration of 0.5–1 × 10^6 CFU mL^–1. Subsequently, the peptides were consecutively diluted in a 0.2% BSA solution and then added to a bacterial solution in a 96-well plate at identical volumes. After incubation for 24 h at 37°C, the MICs were determined to be the lowest peptide concentration that inhibited 95% of the bacterial growth by monitoring the absorbance at 492 nm using a microplate reader. Subsequently, 50 μL of each incubation mixture was further transferred to agar plates and incubated overnight. The minimum bactericidal concentrations (MBCs) were determined as the lowest peptide concentration that killed greater than 99.9% of the bacterial cells. Every assay was reproduced more than 3 times.

[2] = system: all of the tested bacterial strains; assay: Geometric mean of MICs, all tested bacterial strains; assay type: cell-based; conditions: for GM, All: geometric mean of MICs across all tested strains; for TI, All: therapeutic index TI = MHC/GM MIC
Description: The antimicrobial activity of AMPs is the most decisive index for evaluating the clinical application of antimicrobial drugs. Many antimicrobial agents inhibit bacterial growth rather than kill the bacteria quickly, and long-term infections are pathogens that are not completely killed, which results in bacterial severe drug resistance. […] The geometric mean (GM) values of the MICs/MBCs of the two series across all of the tested bacterial strains are represented in Table 3, which depicts the average bacteriostatic/bactericidal level of a peptide.
as §1

[3] = system: MRSA 43300; assay type: cell-based, methicillin-resistant S. aureus; conditions: 43300, 24 h
Description: as §1

[4] = system: Listeria monocytogenes CGMCC 1.1075; assay type: cell-based; conditions: CGMCC 1.1075, 24 h
Description: as §1

[5] = system: S. epidermidis 12228; assay type: cell-based, Staphylococcus epidermidis; conditions: 12228, 24 h
Description: as §1

[6] = system: S. pullorum 7913; assay type: cell-based, Salmonella pullorum; conditions: 7913, 24 h
Description: as §1

[7] = system: E. coli 25922; assay type: cell-based, Escherichia coli; conditions: 25922, 24 h
Description: as §1

[8] = system: E. coli O78; assay type: cell-based, Escherichia coli; conditions: O78, 24 h
Description: as §1

[9] = system: E. coli UB1005; assay type: cell-based, Escherichia coli; conditions: UB1005, 24 h
Description: as §1

[10] = system: S. typhimurium 7731; assay type: cell-based, Salmonella typhimurium; conditions: 7731, 24 h
Description: as §1

[11] = system: S. typhimurium 14028; assay type: cell-based, Salmonella typhimurium; conditions: 14028, 24 h
Description: as §1

[12] = system: S. aureus 29213; assay type: cell-based, Staphylococcus aureus; conditions: 29213, 24 h
Description: as §1

[13] = system: S. aureus 25923; assay type: cell-based, Staphylococcus aureus; conditions: 25923, 24 h
Description: as §1

[14] = system: S. aureus 29213; assay: Salt sensitivity assay (MIC); assay type: cell-based, Staphylococcus aureus; conditions: for MIC, FeCl3: 4 μM FeCl3; for MIC, NH4Cl: 6 μM NH4Cl; for MIC, ZnCl2: 8 μM ZnCl2; for MIC, MgCl2: 1 mM MgCl2; for MIC, CaCl2: 2 mM CaCl2; for MIC, KCl: 4.5 mM KCl; for MIC, NaCl: 150 mM NaCl; for MIC, Control: no added salt, three independent assays
Description: as §1
(§2) The salt sensitivities of the peptides were determined. E. coli ATCC 25922 and S. aureus ATCC 29213 were incubated in the presence of various ultimate concentrations of physiological salts (150 mM NaCl, 4.5 mM KCl, 6 μM NH4Cl, 8 μM ZnCl2, 1 mM MgCl2, 2mM CaCl2, and 4 μM FeCl3) according to our previous protocol ([Yang et al., 2019]). These tests were performed under the MICs, and three independent assays were performed.

[15] = system: E. faecalis 29212; assay type: cell-based, Enterococcus faecalis; conditions: 29212, 24 h
Description: as §1

[16] = system: E. coli ATCC 25922; assay: Salt sensitivity assay (MIC); assay type: cell-based, Escherichia coli; conditions: for MIC, FeCl3: 4 μM FeCl3; for MIC, NH4Cl: 6 μM NH4Cl; for MIC, ZnCl2: 8 μM ZnCl2; for MIC, MgCl2: 1 mM MgCl2; for MIC, CaCl2: 2 mM CaCl2; for MIC, KCl: 4.5 mM KCl; for MIC, NaCl: 150 mM NaCl; for MIC, Control: no added salt, three independent assays
Description: as §1, §2

[17] = system: Gram-positive bacteria; conditions: for GM, Gram-positive bacteria: geometric mean of MICs (Table 3); for TI, Gram-positive bacteria: therapeutic index TI = MHC/GM MIC
Description: (§3) The antimicrobial activity of AMPs is the most decisive index for evaluating the clinical application of antimicrobial drugs.
as §1, with “The minimum bactericidal concentrations (MBCs) were determined as the lowest peptide concentration that killed greater than 99.9% of the bacterial cells.” left out

[18] = system: Gram-negative bacteria; conditions: for GM, Gram-negative bacteria: geometric mean of MICs (Table 3); for TI, Gram-negative bacteria: therapeutic index TI = MHC/GM MIC
Description: as §3
as §1, with “The minimum bactericidal concentrations (MBCs) were determined as the lowest peptide concentration that killed greater than 99.9% of the bacterial cells.” left out

[19] = system: B. subtilis 63501; assay type: cell-based, Bacillus subtilis; conditions: 63501, 24 h
Description: as §1

## WRRRRWWWW-NH2 [W11]
[1]
  MBC: 16 µM
  MIC: 8 µM
[2]
  GM, All: 3.83 µM
  TI, All: 66.84
[3]
  MBC: 4 µM
  MIC: 2 µM
[4]
  MBC: 8 µM
  MIC: 4 µM
[5]
  MBC: 4 µM
  MIC: 2 µM
[6]
  MBC: 8 µM
  MIC: 4 µM
[7]
  MBC: 8 µM
  MIC: 4 µM
[8]
  MBC: 16 µM
  MIC: 8 µM
[9]
  MBC: 8 µM
  MIC: 4 µM
[10]
  MBC: 16 µM
  MIC: 8 µM
[11]
  MBC: 16 µM
  MIC: 8 µM
[12]
  MBC: 4 µM
  MIC: 2 µM
[13]
  MBC: 4 µM
  MIC: 2 µM
[14]
  MIC, FeCl3: 2 µM
  MIC, NH4Cl: 1 µM
  MIC, ZnCl2: 2 µM
  MIC, MgCl2: 2 µM
  MIC, CaCl2: 2 µM
  MIC, KCl: 1 µM
  MIC, NaCl: 2 µM
  MIC, Control: 2 µM
[15]
  MBC: 8 µM
  MIC: 4 µM
[16]
  MIC, FeCl3: 4 µM
  MIC, NH4Cl: 2 µM
  MIC, ZnCl2: 2 µM
  MIC, MgCl2: 8 µM
  MIC, CaCl2: 16 µM
  MIC, KCl: 8 µM
  MIC, NaCl: 8 µM
  MIC, Control: 4 µM
[17]
  GM, Gram-positive bacteria: 2.21 µM
  TI, Gram-positive bacteria: 115.84
[18]
  GM, Gram-negative bacteria: 5.88 µM
  TI, Gram-negative bacteria: 43.54
[19]
  MBC: 2 µM
  MIC: 1 µM

## WRRRWWWWR-NH2 [W6]
[1]
  MBC: 16 µM
  MIC: 8 µM
[2]
  GM, All: 3.51 µM
  TI, All: 72.93
[3]
  MBC: 4 µM
  MIC: 2 µM
[4]
  MBC: 4 µM
  MIC: 2 µM
[5]
  MBC: 8 µM
  MIC: 4 µM
[6]
  MBC: 16 µM
  MIC: 8 µM
[7]
  MBC: 8 µM
  MIC: 4 µM
[8]
  MBC: 8 µM
  MIC: 4 µM
[9]
  MBC: 8 µM
  MIC: 4 µM
[10]
  MBC: 16 µM
  MIC: 8 µM
[11]
  MBC: 16 µM
  MIC: 8 µM
[12]
  MBC: 4 µM
  MIC: 2 µM
[13]
  MBC: 4 µM
  MIC: 2 µM
[14]
  MIC, FeCl3: 2 µM
  MIC, NH4Cl: 2 µM
  MIC, ZnCl2: 2 µM
  MIC, MgCl2: 4 µM
  MIC, CaCl2: 4 µM
  MIC, KCl: 2 µM
  MIC, NaCl: 4 µM
  MIC, Control: 2 µM
[15]
  MBC: 8 µM
  MIC: 4 µM
[16]
  MIC, FeCl3: 4 µM
  MIC, NH4Cl: 2 µM
  MIC, ZnCl2: 4 µM
  MIC, MgCl2: 8 µM
  MIC, CaCl2: 16 µM
  MIC, KCl: 8 µM
  MIC, NaCl: 16 µM
  MIC, Control: 4 µM
[17]
  GM, Gram-positive bacteria: 2.21 µM
  TI, Gram-positive bacteria: 115.84
[18]
  GM, Gram-negative bacteria: 5.04 µM
  TI, Gram-negative bacteria: 50.79
[19]
  MBC: 2 µM
  MIC: 1 µM

## WRRWRWRWW-NH2 [W3]
[1]
  MBC: 8 µM
  MIC: 4 µM
[2]
  GM, All: 3.67 µM
  TI, All: 69.75
[3]
  MBC: 4 µM
  MIC: 2 µM
[4]
  MBC: 8 µM
  MIC: 4 µM
[5]
  MBC: 4 µM
  MIC: 2 µM
[6]
  MBC: 4 µM
  MIC: 2 µM
[7]
  MBC: 8 µM
  MIC: 4 µM
[8]
  MBC: 8 µM
  MIC: 4 µM
[9]
  MBC: 8 µM
  MIC: 4 µM
[10]
  MBC: 16 µM
  MIC: 8 µM
[11]
  MBC: 8 µM
  MIC: 4 µM
[12]
  MBC: 8 µM
  MIC: 4 µM
[13]
  MBC: 8 µM
  MIC: 4 µM
[14]
  MIC, FeCl3: 8 µM
  MIC, NH4Cl: 8 µM
  MIC, ZnCl2: 4 µM
  MIC, MgCl2: 4 µM
  MIC, CaCl2: 4 µM
  MIC, KCl: 2 µM
  MIC, NaCl: 8 µM
  MIC, Control: 4 µM
[15]
  MBC: 8 µM
  MIC: 4 µM
[16]
  MIC, FeCl3: 8 µM
  MIC, NH4Cl: 4 µM
  MIC, ZnCl2: 8 µM
  MIC, MgCl2: 8 µM
  MIC, CaCl2: 8 µM
  MIC, KCl: 8 µM
  MIC, NaCl: 16 µM
  MIC, Control: 4 µM
[17]
  GM, Gram-positive bacteria: 2.69 µM
  TI, Gram-positive bacteria: 95.17
[18]
  GM, Gram-negative bacteria: 4.67 µM
  TI, Gram-negative bacteria: 54.82
[19]
  MBC: 2 µM
  MIC: 1 µM

## WRRWRWWRW-NH2 [W12]
[1]
  MBC: 8 µM
  MIC: 4 µM
[2]
  GM, All: 3.08 µM
  TI, All: 41.56
[3]
  MBC: 4 µM
  MIC: 2 µM
[4]
  MBC: 4 µM
  MIC: 2 µM
[5]
  MBC: 4 µM
  MIC: 2 µM
[6]
  MBC: 8 µM
  MIC: 4 µM
[7]
  MBC: 8 µM
  MIC: 4 µM
[8]
  MBC: 8 µM
  MIC: 4 µM
[9]
  MBC: 8 µM
  MIC: 4 µM
[10]
  MBC: 16 µM
  MIC: 8 µM
[11]
  MBC: 8 µM
  MIC: 4 µM
[12]
  MBC: 4 µM
  MIC: 2 µM
[13]
  MBC: 4 µM
  MIC: 2 µM
[14]
  MIC, FeCl3: 2 µM
  MIC, NH4Cl: 2 µM
  MIC, ZnCl2: 2 µM
  MIC, MgCl2: 2 µM
  MIC, CaCl2: 2 µM
  MIC, KCl: 2 µM
  MIC, NaCl: 4 µM
  MIC, Control: 2 µM
[15]
  MBC: 8 µM
  MIC: 4 µM
[16]
  MIC, FeCl3: 4 µM
  MIC, NH4Cl: 4 µM
  MIC, ZnCl2: 2 µM
  MIC, MgCl2: 4 µM
  MIC, CaCl2: 16 µM
  MIC, KCl: 4 µM
  MIC, NaCl: 32 µM
  MIC, Control: 4 µM
[17]
  GM, Gram-positive bacteria: 2.00 µM
  TI, Gram-positive bacteria: 64.00
[18]
  GM, Gram-negative bacteria: 4.32 µM
  TI, Gram-negative bacteria: 29.63
[19]
  MBC: 2 µM
  MIC: 1 µM
